Assay results from patent publication US8501713B2, “Drug combinations for the treatment of duchenne muscular dystrophy” (Summit Corporation PLC, priority 2007, dated 2013).

Test system: Utrophin A promoter linked to a luciferase reporter gene
Assay: Luciferase reporter assay (murine H2K cells)
Type: cell-based
Conditions: for activity at 10 µM: Mus musculus, H2K mdx, read-out: Activity
How it was run: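 Compound at 10 μM final was applied for 48 hrs to plated H2K mdx myoblasts (33° C, 10% CO2, interferon-containing medium) bearing a luciferase gene under the utrophin A promoter. Luminescence from lysed cells served as read-out.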

[1] = luciferase reporter assay in murine H2K cells, classified relative to control
[2] = luciferase level relative to control, H2K/mdx/Utro A reporter cells, compound 10 μM final concentration

| SMILES | Activity [1] | activity at 10 µM [2] [%] | further results |
| --- | --- | --- | --- |
| Clc1ccc(-c2nc3ccccc3s2)c(Cl)c1 [Example 595] | ++ (Between 201% and 300% relative to control) | – | – |
| COc1ccc(-c2nc3cc(C)ccc3o2)cc1 [Example 675] | ++ (Between 201% and 300% relative to control) | – | – |
| O=C(Nc1ccc2oc(-c3ccccc3)nc2c1)c1cc(Cl)cc(Cl)c1 [Example 30, 3,5-dichloro-N-(2-phenylbenzo[d]oxazol-5-yl)benzamide] | – | < 200 | – |
| Nc1ccc(-c2nc3ccccc3[nH]2)cc1 [Example 475] | + (Up to 200% relative to control) | – | – |
| O=[N+]([O-])c1ccc2nc(-c3ccc(Cl)c(Cl)c3)oc2c1 [Example 324, 2-(3,4-dichlorophenyl)-6-nitrobenzo[d]oxazole] | – | 201 to 300 | – |
| Nc1ccc(-c2ccc3oc(-c4ccc(Cl)cc4)nc3c2)cc1 [Example 329, 4-(2-(4-chlorophenyl)benzo[d]oxazol-5-yl)aniline] | – | > 401 | – |
| Cc1ccc(-c2nc3ncccc3o2)cc1 [Example 158, 2-p-tolyloxazolo[4,5-b]pyridine] | – | < 200 | – |
| O=C(c1ccccc1)c1ccc2nc(-c3ccccc3)[nH]c2c1 [Example 581] | + (Up to 200% relative to control) | – | – |
| CCNC(=O)Nc1ccc2[nH]c(C(C)(C)C)cc2c1 [Example 576] | + (Up to 200% relative to control) | – | – |
| CC(C)C(=O)Nc1ccc(-c2nc3ccccc3s2)cc1 [Example 651] | +++ (Between 301% and 400% relative to control) | – | – |
| CN(C)c1ccc(-c2nc3cc(N)ccc3o2)cc1 [Example 491] | ++ (Between 201% and 300% relative to control) | – | – |
| CCCCNC(=O)c1ccc2oc(-c3ccc(C)cc3)nc2c1 [Example 176, N-butyl-2-p-tolylbenzo[d]oxazole-5-carboxamide] | – | 201 to 300 | – |
| O=C(Cc1ccccc1)Nc1ccc2oc(-c3ccccc3)nc2c1 [Example 33, 2-phenyl-N-(2-phenylbenzo[d]oxazol-5-yl)acetamide] | – | < 200 | – |
| CC(C)C(=O)Nc1ccc2sc(-c3ccc(Cl)cc3)nc2c1 [Example 277, N-(2-(4-chlorophenyl)benzo[d]thiazol-5-yl)isobutyramide] | – | 301 to 400 | – |
| Cc1ccc(-c2nc3cnccc3o2)cc1 [Example 192, 2-p-tolyloxazolo[4,5-c]pyridine] | – | < 200 | – |
| Nc1cnc2oc(-c3ccccc3)nc2c1 [Example 169, 2-phenyloxazolo[5,4-b]pyridin-6-amine] | – | < 200 | – |
| CCS(=O)(=O)c1ccc2oc(-c3ccc(C4CCCCC4)cc3)nc2c1 [Example 425, 2-(4-cyclohexylphenyl)-5-(ethylsulfonyl)benzo[d]oxazole] | – | < 200 | – |
| CN(C)S(=O)(=O)c1ccc2nc(NC(=O)c3cccs3)sc2c1 [Example 683] | ++ (Between 201% and 300% relative to control) | – | – |
| CCN(CC)c1ccc(-c2nc3cc(NC(=O)c4ccc(C)cc4)ccc3o2)cc1 [Example 64, N-(2-(4-(diethylamino)phenyl)benzo[d]oxazol-5-yl)-4-methylbenzamide] | – | < 200 | – |
| CC(C)(C)OC(=O)NCCC(=O)Nc1ccc2oc(-c3ccccc3)nc2c1 [Example 246, tert-butyl 3-oxo-3-(2-phenylbenzo[d]oxazol-5-ylamino)propylcarbamate] | – | < 200 | – |

| SMILES | Activity [1] | activity at 10 µM [2] [%] | further results |
| --- | --- | --- | --- |
| Cc1ccc(-c2nc3cc(NC(=O)c4ccc(Cl)cc4)ccc3o2)cc1 [Example 19, 4-chloro-N-(2-p-tolylbenzo[d]oxazol-5-yl)benzamide] | – | < 200 | – |
| CC(C)C(=O)Nc1ccc2[nH]c(-c3ccc(Cl)cc3)nc2c1 [Example 195, N-(2-(4-chlorophenyl)-1H-benzo[d]imidazol-5-yl)isobutyramide] | – | 201 to 300 | – |
| CCOC(=O)Nc1ccc2oc(-c3ccc(Cl)cc3)nc2c1 [Example 386, ethyl 2-(4-chlorophenyl)benzo[d]oxazol-5-ylcarbamate] | – | < 200 | – |
| Cc1ccc(-c2nc3cccnc3o2)cc1 [Example 157, 2-p-tolyloxazolo[5,4-b]pyridine] | – | 301 to 400 | – |
| CC(C)S(=O)(=O)Nc1ccc2oc(-c3ccc(Cl)cc3)nc2c1 [Example 261, N-(2-(4-chlorophenyl)benzo[d]oxazol-5-yl)propane-2-sulfonamide] | – | < 200 | – |
| CCS(=O)(=O)c1ccc2oc(-c3ccc(C)s3)nc2c1 [Example 418, 5-(ethylsulfonyl)-2-(5-methylthiophen-2-yl)benzo[d]oxazole] | – | > 401 | – |
| Cc1cc2nc(-c3ccc(Cl)cc3)oc2cc1C [Example 222, 2-(4-chlorophenyl)-5,6-dimethylbenzo[d]oxazole] | – | > 401 | – |
| Cc1ccc2oc(-c3ccc([N+](=O)[O-])cc3)nc2c1 [Example 505] | ++ (Between 201% and 300% relative to control) | – | – |
| CC(=O)Nc1ccc(-c2nc3cc(Cl)ccc3o2)cc1 [Example 317, N-(4-(5-chlorobenzo[d]oxazol-2-yl)phenyl)acetamide] | – | 301 to 400 | – |
| CC(=O)Nc1ccc(-c2nc3cc(C)c(C)cc3o2)c(O)c1 [Example 433, N-(4-(5,6-dimethylbenzo[d]oxazol-2-yl)-3-hydroxyphenyl)acetamide] | – | 201 to 300 | – |
| CCN(CC)c1ccc(-c2nc3cc(C(C)(C)C)ccc3o2)cc1 [Example 142, 4-(5-tert-butylbenzo[d]oxazol-2-yl)-N,N-diethylaniline] | – | 201 to 300 | – |
| Nc1cc(-c2nc3ccccc3s2)ccc1Cl [Example 592] | ++++ (Above 401% relative to control) | – | – |
| CC(C)C(=O)Nc1ccc2ccn(Cc3ccccc3)c2c1 [Example 387, N-(1-benzyl-1H-indol-6-yl)isobutyramide] | – | < 200 | – |
| CCC(=O)Nc1ccc2oc(-c3ccc(Cl)cc3)nc2c1 [Example 207, N-(2-(4-chlorophenyl)benzo[d]oxazol-5-yl)propionamide] | – | > 401 | – |
| CC(=O)c1ccc2oc(-c3ccc(Cl)c(Cl)c3)nc2c1 [Example 453, 1-(2′-(3″,4″-Dichlorophenyl)benzo[d]oxazol-5′-yl)ethanone] | – | – | Activity [2]: ++++ (Above 401% relative to control) |
| COc1ccc(-c2nc3ccccc3s2)cc1O [Example 596] | ++++ (Above 401% relative to control) | – | – |
| CCN(CC)c1ccc(-c2nc3cc(N)ccc3o2)cc1 [Example 16, 2-(4-(diethylamino)phenyl)benzo[d]oxazol-5-amine] | – | 201 to 300 | – |
| O=[N+]([O-])c1ccc2oc(-c3ccc(OC(F)(F)F)cc3)nc2c1 [Example 348, 5-nitro-2-(4-(trifluoromethoxy)phenyl)benzo[d]oxazole] | – | 201 to 300 | – |
| O=C(Nc1ccc2oc(-c3ccccc3)nc2c1)c1cccs1 [Example 37, N-(2-phenylbenzo[d]oxazol-5-yl)thiophene-2-carboxamide] | – | 201 to 300 | – |
| Oc1ccccc1-c1nc2ccccc2s1 [Example 483] | + (Up to 200% relative to control) | – | – |

| SMILES | Activity [1] | activity at 10 µM [2] [%] | further results |
| --- | --- | --- | --- |
| Cc1cc(C)cc(-c2nc3cc(N)ccc3o2)c1 [Example 482] | + (Up to 200% relative to control) | – | – |
| Cc1ccc(-c2nc3ccccc3n2C)cc1 [Example 588] | +++ (Between 301% and 400% relative to control) | – | – |
| Cc1ccc(-c2nc3cc(N)ccc3o2)cc1Cl [Example 526] | ++ (Between 201% and 300% relative to control) | – | – |
| O=C(Nc1ccc2oc(-c3ccc(C(F)(F)F)cc3)nc2c1)c1cccnc1 [Example 121, N-(2-(4-(trifluoromethyl)phenyl)benzo[d]oxazol-5-yl)nicotinamide] | – | < 200 | – |
| Cc1ccc(C(=O)Nc2ccc3oc(-c4cccnc4)nc3c2)cc1 [Example 41, 4-methyl-N-(2-(pyridin-3-yl)benzo[d]oxazol-5-yl)benzamide] | – | < 200 | – |
| Nc1ccc2oc(-c3ccc4c(c3)OCO4)nc2c1 [Example 299, 2-(benzo[d][1,3]dioxol-5-yl)benzo[d]oxazol-5-amine] | – | 201 to 300 | – |
| CC(C)C(=O)Nc1ccc2cc(-c3ccccc3)n(C)c2c1 [Example 389, N-(1-methyl-2-phenyl-1H-indol-6-yl)isobutyramide] | – | < 200 | – |
| COc1ccccc1C(=O)Nc1ccc2oc(-c3ccc(Cl)cc3)nc2c1 [Example 92, N-(2-(4-chlorophenyl)benzo[d]oxazol-5-yl)-2-methoxybenzamide] | – | < 200 | – |
| CCC(=O)Nc1ccc2oc(-c3ccc(N(CC)CC)cc3)nc2c1 [Example 75, N-(2-(4-(diethylamino)phenyl)benzo[d]oxazol-5-yl)propionamide] | – | 201 to 300 | – |
| COc1ccc(-c2nc3cc(NC(=O)c4cccs4)ccc3o2)cc1 [Example 141, N-(2-(4-methoxyphenyl)benzo[d]oxazol-5-yl)thiophene-2-carboxamide] | – | < 200 | – |
| O=C(Nc1ccc2oc(-c3ccc(Cl)cc3)nc2c1)c1ccncc1 [Example 87, N-(2-(4-chlorophenyl)benzo[d]oxazol-5-yl)isonicotinamide] | – | < 200 | – |
| COc1ccc(-c2nc3ccccc3s2)cc1N [Example 597] | +++ (Between 301% and 400% relative to control) | – | – |
| CCC(C)c1ccc2oc(-c3ccc(N)cc3)nc2c1 (stereo not shown) [Example 609] | +++ (Between 301% and 400% relative to control) | – | – |
| Cc1ccc2nc(-c3ccc(C)c(N)c3)oc2c1 [Example 635] | +++ (Between 301% and 400% relative to control) | – | – |
| O=C(C=Cc1ccccc1)Nc1ccc2oc(-c3ccccc3)nc2c1 [Example 34, N-(2-phenylbenzo[d]oxazol-5-yl)cinnamamide] | – | < 200 | – |
| O=[N+]([O-])c1ccc2nc(-c3ccccn3)oc2c1 [Example 223, 6-nitro-2-(pyridin-2-yl)benzo[d]oxazole] | – | < 200 | – |
| Clc1ccc(-c2nc3cc(-c4ccc(Cl)nc4)ccc3o2)cc1 [Example 314, 2-(4-chlorophenyl)-5-(6-chloropyridin-3-yl)benzo[d]oxazole] | – | < 200 | – |
| O=C(Nc1ccc2oc(-c3ccc(Cl)cc3)nc2c1)c1ccco1 [Example 102, N-(2-(4-chlorophenyl)benzo[d]oxazol-5-yl)furan-2-carboxamide] | – | < 200 | – |
